Assay results reported in patent US9439927B2, “Treatment of inflammatory bowel disease” (Glock Health GmbH, priority 2013, dated 2016).

Columns and labels:
intestinal epithelium = assay: Histological analysis (hematoxylin and eosin staining) and colon damage score; type: in vivo, mice
Protocol: (§1) For five groups of 12 mice each (only 3 mice in the control), the experimental routine procedure frequently used in connection with the treatment of IBD was carried out, in which IBD is induced by administration of dextran sulfate sodium (DSS). This involved administering DSS in drinking water for five days (but not in the control group), and after that the particular test substance was administered orally. On the tenth day, the mice were sacrificed using CO2 and the colon was removed for examination.

[1] = system: IBD induced by administration of dextran sulfate sodium (DSS); assay: Stool consistency (stool score), DSS-induced IBD in mice; type: in vivo; settings: tenth day, FIG. 2
Protocol: as §1

[2] = system: IBD induced by administration of dextran sulfate sodium (DSS); assay: Blood in stool, DSS-induced IBD in mice; type: in vivo; parameters: key to Blood in stool: + Blood in stool; − No blood in stool; settings: for Blood in stool: DSS in drinking water for five days, test substance orally from the sixth day
Protocol: as §1, with “examination. The individual groups were as follows:” for “examination.”
Group 2: received only DSS.
Group 3: (GHC1) received DSS as described above and, from the sixth day, a clinoptilolite freed of heavy metals which was ground to a mean particle size of 3.5 μm and thus not in accordance with the invention.
Group 4: (GHC2) received, from the sixth day, the substance according to the invention.
Group 5: (5ASA) received, from the sixth day, sulfasalazine, a derivative of mesalazine, also termed 5-ASA.

TNF-α = TNF-α mRNA by RT-PCR in intestinal tissue homogenates; type: in vivo, mice; settings: FIG. 10
Protocol: as §1, with “examination. The individual groups were as follows:” for “examination.”
To objectify and quantify the effects determined from the histological examinations, further analyses of biochemical inflammation markers (TNF-α/IL-6/IL-1β mRNA by means of RT-PCR, MPO activity) from tissue homogenates of the relevant intestinal segments were carried out.
Two further proinflammatory cytokines were examined; the results are shown in FIG. 9 (IL-6) and 10 (TNF-α). Said figures show: • 2expΔΔct=the rise in expression for a particular gene (1=1×, 2=2×, etc.); • Control=control group; • DSS1.5=group 2; • DSS1.5+GHC1=group 3; • DSS1.5+GHC2=(inventive) group 4; • DSS1.5+5ASA=group 5; • **=a very significant difference in relation to the control group (control); • #=a significant difference in relation to the DDS1.5 group (group 2); • ##=a very significant difference in relation to the DDS1.5 group (group 2).

## O=C(O)c1cc(/N=N/c2ccc(S(=O)(=O)Nc3ccccn3)cc2)ccc1O [5ASA, sulfasalazine]
Intestinal epithelium; hematoxylin and eosin staining, day 10, FIG. 5
  Healing of the intestinal epithelium (histology): distinctly improved healing of the intestinal epithelium
Intestinal epithelium; histo(patho)logical examinations, FIG. 6
  Colon damage score: good convergence
[1]
  Stool consistency, return to normal range: completely within the normal range
[2]; day 0
  Blood in stool: −
[2]; day 2
  Blood in stool: −
[2]; day 4
  Blood in stool: −
[2]; day 6
  Blood in stool: +
[2]; day 8
  Blood in stool: −
[2]; day 10
  Blood in stool: −
[2]; text summary of Table I
  Days on which blood in stool was exhibited: only on the sixth day
TNF-α
  TNF-α expression (2expΔΔct): does not show a positive effect
